Data published in patent US20100130544A1, “USE OF PARASYM[…] ENHANCE AND […] CELL DIFFERENTIATION, RELATED METHODS AND COMPOSITIONS” (UNIVERSITA' DEGLI STUDI DI TORINO, priority 2006, published 2010).

How the values were obtained:
Synovial cells (SynCs) = assay: Phenotypic analysis (Western blotting, immunofluorescence) of synovial cells stimulated towards hepatocytic type + parasympatholytic; format: cell-based, human; settings: Synovial cells Hepatocytic type + parasympath. (HGF medium + 0.2 μg/mL scopolamine)
Experimental: Synovial cells (SynCs) have been obtained from patients during exeresis and curettage of the synovial membrane inside the femoral-tibial joint cavity. Fresh synovial tissue sections have been disaggregated in collagenase (10 μg per mL of medium, Sigma) for two hours at 37° C. The pellet, washed twice in DMEM-LG (Gibco; Grand Island, N.Y., USA), free of any supplements, by centrifugation at 160 g for 10 minutes and then resuspended in complete low-glucose Dulbecco's modified Eagle's medium ([DMEM-LG] GIBCO; Grand Island, N.Y., USA) supplemented with 10% foetal bovine serum ([FBS] Sigma), 10 U/mL penicillin G, and 40 μg/mL gentamycin, is finally seeded into 75 cm^2 flasks and incubated in 5% CO2 at a temperature of 37° C. After 24 hours, the medium, along with any cells still in suspension, has been aspirated off and fresh medium (DMEM-LG, Gibco; Grand Island, N.Y., USA, supplemented with 10% FBS, Sigma, 10 U/mL penicillin G, and 40 μg/mL gentamycin) has been added over the adhered cells. The cells have been grown in 75 cm^2 flasks in an incubator with 5% CO2 at a temperature of 37° C. When the cells reach 80% confluence, they are detached using trypsin-EDTA (5 minutes incubation at 37° C. followed by the addition of 5 mL of pure FBS, and the detached cells in suspension are harvested), washed twice by centrifugation at 160 g for 7 minutes at 37° C. in DMEM-LG medium (Gibco; Grand Island, N.Y., USA) free of any supplements. The cells in the pellets thus obtained are resuspended at a concentration of 1×10^6 in fresh DMEM-LG medium (Gibco; Grand Island, N.Y., USA) supplemented with 10% foetal bovine serum ([FBS] Sigma), 10 U/mL penicillin G, and 40 μg/mL gentamycin. The cells have been reseeded after 1:4 dilution (final concentration 2.5×10^4). In this study, cells after the second passage in continuous culture have been used.
As described above in detail, every seventh day of incubation samples of all confluent MSC and SynC cells have been subjected to immunofluorescence testing of samples adhered onto sell culture slides. […]
Western blotting first makes use of denaturing electrophoresis (SDS-PAGE) in order to separate the various proteins according to molecular weight, by cancelling out the charges on the amino acids which might influence migration. […] The lysates thus obtained have been centrifuged at 12,000 rpm for 20 minutes at 4° C. and the supernatants collected; the protein concentrations of the samples have been measured using the Bio-Rad method (Benchmark Plus assay, Bio-Rad). […]

[1] = test system: Human mesenchymal pluripotent stem cells (MSCs); assay: Phenotypic analysis (Western blotting, immunofluorescence) of mesenchymal cells stimulated towards hepatocytic type + parasympatholytic; format: cell-based; settings: Mesenchymal cells Hepatocytic type + parasympath. (HGF medium + 0.2 μg/mL scopolamine)
From the text: Human mesenchymal pluripotent stem cells (MSCs, mesenchymal Stem Cells) have been extracted from samples of bone marrow (BM) taken from the femoral head (spongy tissue and bone marrow) during complete hip-replacement surgery. The nucleated cells have been separated by means of a density gradient (Ficoll-Paque, Amersham) and resuspended in low-glucose Dulbecco's modified Eagle's medium (DMEM-LG, Gibco, Grand Island, N.Y., USA) supplemented with 10% foetal bovine serum (FBS, Sigma), 10 U/mL penicillin G, and 40 μg/mL gentamycin. After 24 hours in culture, the medium, along with any cells in suspension, has been removed by aspiration and fresh medium added onto the adhered cells. The cells have been grown in 75 cm^2 flasks in an incubator with 5% CO2 at a temperature of 37° C. When the cells reach 80% confluence, they are detached using trypsin-EDTA (5 minutes incubation at 37° C. followed by the addition of 5 mL of pure FBS, and the detached cells in suspension are harvested), washed twice by centrifugation at 160 g for 7 minutes at 37° C. in DMEM-LG medium (Gibco; Grand Island, N.Y., USA) free of any supplements. The cells in the pellets thus obtained are resuspended at a concentration of 1×10^6 in fresh DMEM-LG medium (Gibco; Grand Island, N.Y., USA) supplemented with 10% foetal bovine serum (FBS, Sigma), 10 U/mL penicillin G, and 40 μg/mL gentamycin. The cells are reseeded after 1:4 dilution (final concentration 2.5×10^4). In this study, cells after the third passage in continuous culture have been used.
As described above in detail, every seventh day of incubation samples of all confluent MSC and SynC cells have been subjected to immunofluorescence testing of samples adhered onto sell culture slides.
Furthermore, every seventh day of incubation, samples of the same cells have been detached using trypsin-EDTA (5 minutes at a temperature of 37° C. followed by the addition of 5 mL of pure FBS and the detached cells in suspension harvested) and washed twice by centrifugation at 160 g for 7 minutes at 37° C. in DMEM-LG (Gibco; Grand Island, N.Y., USA) without any supplements.
Western blotting first makes use of denaturing electrophoresis (SDS-PAGE) in order to separate the various proteins according to molecular weight, by cancelling out the charges on the amino acids which might influence migration. The cell samples, suspended in lysis buffer (1% SDS, 30 mM Tris pH 6.8, 5% glycerol) to which protease inhibitors (Protease Inhibitor Cocktail, Calbiochem, San Diego, Calif., USA) have been added, have been incubated for 30 minutes at 4° C. The lysates thus obtained have been centrifuged at 12,000 rpm for 20 minutes at 4° C. and the supernatants collected; the protein concentrations of the samples have been measured using the Bio-Rad method (Benchmark Plus assay, Bio-Rad). Prior to electrophoresis, the samples have been boiled for 5 minutes in the presence of beta-mercaptoethanol and bromophenol blue. The samples have been subjected to electrophoresis on a 12% gel (SDS-PAGE) and then transferred onto a PVDF membrane (Perkin Elmer Inc.). […]

[2] = test system: peripheral blood monocytes; assay: Phenotypic analysis (Western blotting, immunofluorescence) of monocytes stimulated towards hepatocytic type + parasympatholytic; format: cell-based, human; design: key to expression of CD34: −−−−− = absence of any fluorescence; + = 1-5 fluorescent cells per optical field; ++ = 6-10 fluorescent cells per optical field; +++ = 10-20 fluorescent cells per optical field; ++++ = 20-50 fluorescent cells per optical field; +++++ > 50 fluorescent cells per optical field; settings: monocytes Hepatocytic type + parasympath. (HGF medium + 0.2 μg/mL scopolamine)
Experimental: (§1) Furthermore, samples of the same cells, taken every seventh day of incubation, have been incubated for 5-8 minutes with 2% lidocaine (Sigma Aldrich, Milan, Italy) in PBS and the solution thus obtained harvested, as described in the bibliography.
(§2) Western blotting first makes use of denaturing electrophoresis (SDS-PAGE) in order to separate the various proteins according to molecular weight, by cancelling out the charges on the amino acids which might influence migration. The cell samples, suspended in lysis buffer (1% SDS, 30 mM Tris pH 6.8, 5% glycerol) to which protease inhibitors (Protease Inhibitor Cocktail, Calbiochem, San Diego, Calif., USA) have been added, have been incubated for 30 minutes at 4° C. The lysates thus obtained have been centrifuged at 12,000 rpm for 20 minutes at 4° C. and the supernatants collected; the protein concentrations of the samples have been measured using the Bio-Rad method (Benchmark Plus assay, Bio-Rad). Prior to electrophoresis, the samples have been boiled for 5 minutes in the presence of beta-mercaptoethanol and bromophenol blue. The samples have been subjected to electrophoresis on a 12% gel (SDS-PAGE) and then transferred onto a PVDF membrane (Perkin Elmer Inc.). The membranes have been saturated with […] at room temperature and subsequently incubated overnight, at 4° C., with the following primary antibodies diluted 1:500 in PBS with 5% skimmed milk powder: anti-CD 34 (Santa Cruz Biotechnology, CA, USA), anti-CD 14 (Santa Cruz Biotechnology, CA, USA), anti-CD 45 (Santa Cruz Biotechnology, CA, USA), anti-CD 71 (Santa Cruz Biotechnology, CA, USA), anti-CD 90 (Santa Cruz Biotechnology, CA, USA), anti-CD 29 (Santa Cruz Biotechnology, CA, USA), anti-CD 105 (Santa Cruz Biotechnology, CA, USA), anti CD 117/c-KIT (Santa Cruz Biotechnology, CA, USA), anti c-MET (Santa Cruz Biotechnology, CA, USA), anti cytokeratin 7 (Santa Cruz Biotechnology, CA, USA), anti cytokeratin 8 (Santa Cruz Biotechnology, CA, USA), anti cytokeratin 18 (Santa Cruz Biotechnology, CA, USA), anti cytokeratin 19 (Santa Cruz Biotechnology, CA, USA), anti cytokeratin 7/17 (Santa Cruz Biotechnology, CA, USA), anti albumin (Rockland Immunochemicals, PA, USA), anti alpha-fetoprotein (Monosan Europa, Netherlands). After five washes, the membranes have been incubated with the corresponding secondary antibodies (1:1000) conjugated to horseradish peroxidase (HRP, SantaCruz Biotechnologies Inc., Santa Cruz, Calif., USA) for 1 hour at room temperature.
(§3) Cells in suspension have been incubated with […] MitoTracker Red for 10 minutes at 37° C. […] After three washes in PBS, the cells have been resuspended in a solution of PBS and 0.1% Triton for 1 hour at 4° C. After three washes in PBS, the cells have been seeded onto slide covers and the liquid allowed to evaporate-off in air. The cells have been blocked with 20% normal goat serum for one hour, then incubated for 30 minutes with the following fluorescein isothiocyanate (FITC) conjugated anti-human monoclonal antibodies: anti-CD 34 (Santa Cruz Biotechnology, CA, USA), anti-CD 14 (Santa Cruz Biotechnology, CA, USA), anti-CD 45 (Santa Cruz Biotechnology, CA, USA), anti-CD 71 (Santa Cruz Biotechnology, CA, USA), anti-CD 90 (Santa Cruz Biotechnology, CA, USA), anti-CD 29 (Santa Cruz Biotechnology, CA, USA), anti-CD 105 (Santa Cruz Biotechnology, CA, USA), anti CD 117/c-KIT (Santa Cruz Biotechnology, CA, USA), anti c-KIT (Santa Cruz Biotechnology, CA, USA), anti c-MET (Santa Cruz Biotechnology, CA, USA), anti cytokeratin 7 (Santa Cruz Biotechnology, CA, USA), anti cytokeratin 8 (Santa Cruz Biotechnology, CA, USA), anti cytokeratin 18 (Santa Cruz Biotechnology, CA, USA), anti cytokeratin 19 (Santa Cruz Biotechnology, CA, USA), anti cytokeratin 7/17 (Santa Cruz Biotechnology, CA, USA), anti albumin (Rockland Immunochemicals, PA, USA), anti alpha-fetoprotein (Monosan Europa, Netherlands). […]

THP-1 cells (PSC-THP1) = assay: Phenotypic analysis (Western blotting, immunofluorescence) of PSC-THP1 stimulated towards hepatocytic type + parasympatholytic; format: cell-based, human; design: key to expression of CD34: −−−−− = absence of any fluorescence; + = 1-5 fluorescent cells per optical field; ++ = 6-10 fluorescent cells per optical field; +++ = 10-20 fluorescent cells per optical field; ++++ = 20-50 fluorescent cells per optical field; +++++ > 50 fluorescent cells per optical field; settings: PSC-THP1 Hepatocytic type + parasympath. (HGF medium + 0.2 μg/mL scopolamine)
Experimental: as §1, §2, §3

## CN1[C@@H]2C[C@@H](OC(=O)[C@H](CO)c3ccccc3)C[C@H]1[C@@H]1O[C@@H]12 [scopolamine, [7(S)-(1α,2β,4β,5α,7β)]-α-(hydroxymethyl)acid benzenacetic-9-methyl-3-oxa-9-azatricyclo[3.3.1.02,4]non-7-yl-ester]
Synovial cells (SynCs)
  expression of CD71: ++ (++ = 6-10 fluorescent cells per optical field)
  expression of Human albumin: +++ (+++ = 10-20 fluorescent cells per optical field)
  expression of alpha-fetoprotein: + (+ = 1-5 fluorescent cells per optical field)
  expression of c-KIT: + (+ = 1-5 fluorescent cells per optical field)
[1]
  expression of CD29: + (+ = 1-5 fluorescent cells per optical field)
  expression of CD71: ++ (++ = 6-10 fluorescent cells per optical field)
  expression of CD90: + (+ = 1-5 fluorescent cells per optical field)
  expression of CD105: + (+ = 1-5 fluorescent cells per optical field)
  expression of Human albumin: ++ (++ = 6-10 fluorescent cells per optical field)
  expression of alpha-fetoprotein: + (+ = 1-5 fluorescent cells per optical field)
  expression of c-KIT: + (+ = 1-5 fluorescent cells per optical field)
[2]
  expression of CD14: + (+ = 1-5 fluorescent cells per optical field)
  expression of CD34: −−−−−
  expression of Cytokeratin 7: +++++ (+++++ > 50 fluorescent cells per optical field)
  expression of Cytokeratin 8: ++++ (++++ = 20-50 fluorescent cells per optical field)
  expression of Cytokeratin 18: +++ (+++ = 10-20 fluorescent cells per optical field)
  expression of Cytokeratin 19: +++++ (+++++ > 50 fluorescent cells per optical field)
  expression of Cytokeratins 7/17: ++++ (++++ = 20-50 fluorescent cells per optical field)
  expression of Human albumin: +++++ (+++++ > 50 fluorescent cells per optical field)
  expression of alpha-fetoprotein: ++ (++ = 6-10 fluorescent cells per optical field)
  expression of c-KIT: + (+ = 1-5 fluorescent cells per optical field)
  expression of c-Met: ++ (++ = 6-10 fluorescent cells per optical field)
THP-1 cells (PSC-THP1)
  expression of CD14: + (+ = 1-5 fluorescent cells per optical field)
  expression of CD34: −−−−−
  expression of Cytokeratin 7: +++++ (+++++ > 50 fluorescent cells per optical field)
  expression of Cytokeratin 8: ++++ (++++ = 20-50 fluorescent cells per optical field)
  expression of Cytokeratin 18: +++ (+++ = 10-20 fluorescent cells per optical field)
  expression of Cytokeratin 19: +++++ (+++++ > 50 fluorescent cells per optical field)
  expression of Cytokeratins 7/17: ++++ (++++ = 20-50 fluorescent cells per optical field)
  expression of Human albumin: +++++ (+++++ > 50 fluorescent cells per optical field)
  expression of alpha-fetoprotein: ++ (++ = 6-10 fluorescent cells per optical field)
  expression of c-KIT: + (+ = 1-5 fluorescent cells per optical field)
  expression of c-Met: ++ (++ = 6-10 fluorescent cells per optical field)
